≈ marks a conversion by molar mass, not a printed value.
Experiments:
[1] = Partition coefficient and apparent partition coefficient, n-octanol / phosphate buffer pH 7.4 at 25° C.; assay type: physicochemical; conditions: n-octanol / phosphate buffer pH 7.4, 25° C.; for Partition Coefficient: P = Co/Cw; for Apparent Partition Coefficient: Papp=P/(1+10^pKa-pH)
Experimental: Melting points (peak onset temperature) were determined by Differential Scanning Calorimetry using a Perkin Elmer DSC 7. The saturation solubilities were determined by shaking an excess of the compound in phosphate buffer pH 7.4 at 25° C. […] Pharmaceutical Press p70]:
where P=Co /Cw and where Co is the concentration of the drug in n-octanol and Cw is the concentration of the drug in phosphate buffer pH 7.4 at 25° C. Drug concentrations were determined by HPLC.

[2] = providing an appropriate pH gradient existed; cited from earlier work
[3] = dogs, sustained-release oral formulation study; cited from earlier work
[4] = cited from earlier work
[5] = Thermal decomposition seen in differential scanning calorimetry; assay type: physicochemical; conditions: DSC from 50 to 200° C.
Experimental: Salbutamol base (1.2007 g; 5.02 mmol) was dissolved in ethanol (100 mL) with vigorous stirring. Glycodeoxycholic acid (2.4601 g; water content: 4.25% w/w; 5.25 mmol~5% molar excess) was added and dissolved with stirring. A clear, colourless solution was obtained. The ethanol was removed by vacuum rotary-evaporation to give a viscous, yellow residue. Ethyl acetate (200 mL) was added to the residue and the mixture heated in a water bath with constant agitation. As the yellow residue dissolved, a white precipitate formed. Agitation was continued until the yellow residue disappeared. The ethyl acetate solution was cooled in an ice bath. […] Analysis by differential scanning calorimetry from 50 to 200° C. gave no significant thermal event. Slow decomposition was evident after 110° C.

[6] = Aqueous solubility (stated in the Examples); assay type: physicochemical; conditions: aqueous solution
[7] = Deliquescence of precipitate on standing; assay type: physicochemical
[8] = by forming a complex with a fatty acid; cited from earlier work

For `CC(C)(C)NCC(O)c1ccc(O)c(CO)c1` (stereo not drawn) [Salbutamol base], the “Partition Coefficient” value [1] was 0,42 and the “Apparent Partition Coefficient” value [1] was 0.005222.
In the case of `CNS(=O)(=O)Cc1ccc2[nH]cc(CCN(C)C)c2c1` [Sumatriptan caprate, sumatriptan caprate], the “Partition Coefficient” value [1] is reported as 1,54 and the “Apparent Partition Coefficient” value [1] is reported as 0.009015.
For `CCCCCCCC/C=C\CCCCCCCC(=O)O` [oleic acid], the “Transport of cations across an iso-Pr myristate membrane” value [2] is listed as “facilitated”.
In the case of `CNS(=O)(=O)Cc1ccc2[nH]cc(CCN(C)C)c2c1` [Sumatriptan base], the “Partition Coefficient” value [1] is reported as 0,69 and the “Apparent Partition Coefficient” value [1] is reported as 0,004039.
In the case of `CC(C)NCC(O)COc1cccc2ccccc12` (stereo not drawn) [propranolol laurate], the bioavailability [3] is given as “An increase in bioavailability was observed”.
For `CCCCCCCCCCCC(=O)O` [lauric acid], the “Transport of cations across an iso-Pr myristate membrane” value [2] is listed as “facilitated”.
For `CCCCCCCCCCCC(=O)[O-].[Na+]` [sodium laurate], the “effect on rat nasal absorption of insulin” value (“effect” for short) [4] is listed as “promoting effect”.
For `CCCCCCCCCC(=O)[O-].[Na+]` [sodium caprate], the “effect” value [4] is given as “promoting effect”.
For `CCCCCCCC(=O)[O-].[Na+]` [sodium caprylate], the “effect” value [4] is listed as “promoting effect”.
With `CC(C)(C)NCC(O)c1ccc(O)c(CO)c1` (stereo not drawn) [Salbutamol glycodeoxycholate, salbutamol glycodeoxycholate] the “Slow decomposition evident after” value [5] was over 110 °C, the Aqueous solubility [6] was “greater than 8.35 mg/mL” and the “Partition Coefficient” value [1] was 0,61. The “Apparent Partition Coefficient” value [1] was 0,007584.
With `COc1ccc2c3c1O[C@H]1[C@@H](O)C=C[C@H]4[C@@H](C2)N(C)CC[C@@]341` [Codeine caprate, codeine caprate] the Deliquescence [7] was “very deliquescent”.
With `CC(C)(C)NCC(O)c1ccc(O)c(CO)c1` (stereo not drawn) [Salbutamol caprate] the solubility ([6]; water) was 4760 µg/mL (≈ 19.9 mM), the “Partition Coefficient” value [1] was 0,54 and the “Apparent Partition Coefficient” value [1] was 0,006714.
For `CC(C)NCC(O)COc1cccc2ccccc12` (stereo not drawn) [propranolol], the “Penetration across the stratum corneum” value [8] is listed as “a significant proportion of propranolol will penetrate across the stratum corneum”.

— patent US6255502A, “Pharmaceutical composition containing acid addition salt of basic drug” (Farmarc Nederland B.V., priority 1996, dated 2001)
